US8063008B2, “Enzymatic production of peracids using perhydrolytic enzymes” (E. I. du Pont de Nemours and Company, priority 2005, dated 2011)
Values after ≈ are worked out from the molar mass of the structure shown. Values joined by “and” are separate entries in the source; they are usually repeats but may differ in a detail not shown here. Equal entries are not always repeated.

Experiments:
[1] = Protease-catalyzed perhydrolysis of diacetamide at pH 4.0 (Example 6); assay type: biochemical; settings: pH 4.0, 500 mM H2O2, 1 mg protease
Description: (§1) Into a 4-mL glass vial with stir bar was added 1 mg protease (Table 6) in 0.050 mL of 50 mM sodium acetate/acetic acid buffer (pH 4.0), 0.900 mL of an aqueous mixture containing either a) acetamide (278 mM) in 50 mM sodium acetate/acetic acid buffer (pH 4.0) or b) diacetamide (278 mM) in 50 mM sodium acetate/acetic acid buffer (pH 4.0), and 0.052 mL 30% hydrogen peroxide (500 mM final concentration). […] A portion of the filtered reaction samples was diluted 1:10 with dd water and analyzed for hydrogen peroxide, and the remaining portion of the sample was directly analyzed for peracid using the HPLC assay method (Table 7).

[2] = Protease-catalyzed perhydrolysis of diacetamide at pH 6.5 (Example 9); assay type: biochemical; settings: pH 6.5, 500 mM H2O2, 1 mg protease
Description: as §1, with “potassium phosphate” for “sodium acetate/acetic acid”, “6.5),” for “4.0),”, “6.5)” for “4.0)”, “10).” for “7).”

[3] = Protease-catalyzed perhydrolysis of acetamide at pH 4.0 (Example 6); assay type: biochemical; settings: pH 4.0, 500 mM H2O2, 1 mg protease
Description: as §1

[4] = Protease-catalyzed perhydrolysis of triacetin at pH 6.5 (Example 8); assay type: biochemical; settings: pH 6.5, 500 mM H2O2, 1 mg protease
Description: The analytical procedure described by U. Karst et al. (Anal. Chem., 69 (17):3623-3627 (1997)) was employed, as described herein, for analysis of product mixtures containing peracid and hydrogen peroxide. Briefly, the concentration of peracetic acid (PAA) in analyzed samples ranged from 0.025 mM-10 mM, and the concentration of H2O2 ranged from 0.075 mM-3 mM. Reaction mixtures containing peracid and/or hydrogen peroxide were, if necessary prior to analysis, diluted to produce a concentration of peracid or peroxide in these ranges. Into a 4-mL vial was placed 0.100 mL of 20 mM methyl p-tolyl sulfide (MTS) in acetonitrile, 0.300 mL of distilled and deionized water (dd) and 0.100 mL of sample solution (undiluted or diluted with dd water by a factor of up to 1:25 for analysis of peracid), or 0.100 mL of 20 mM MTS in acetonitrile and 0.390 mL of dd water were added to 0.010 mL of a 1:10 dilution of sample solution (for analysis of hydrogen peroxide). After a reaction time of 10 minutes (in the dark, with no stirring), 0.400 mL CH3CN and 0.100 mL of 40-mM triphenylphosphine (TPP) in CH3CN were added to start the second derivatization reaction for detection of peroxide. The solution was left standing in the dark for 30 min to complete the assay reaction. At the end of 30 minutes, 0.100 mL of 10 mM N,N-diethyl-m-toluamide (DEET, HPLC external standard) was added and the resulting solution analyzed by HPLC: Supelco Discovery C8 10-cm column with pre-column, 10-μL injection, UV detection at 225 nm, solvent A: acetonitrile, solvent B: deionized water, 1 mL/min gradient as follows: […]
Into a 4-mL glass vial with stir bar was added 1 mg protease (Table 6) in 0.050 mL of 50 mM sodium phosphate buffer (pH 6.5), 0.900 mL of an aqueous mixture containing triacetin (278 mM) in 50 mM phosphate buffer (pH 6.5), and 0.052 mL 30% hydrogen peroxide (500 mM final concentration). After stirring for 5 or 30 minutes at 22° C., a 0.250 mL sample was filtered using a 30,000 NMWL filter (Millipore UltraFree-MC) centrifuged for 2 minute at 12,000 RPM. A portion of the filtered reaction samples was diluted 1:10 with dd water and analyzed for hydrogen peroxide, and the remaining portion of the sample was directly analyzed for peracid using the HPLC assay method (Table 9).

[5] = Protease-catalyzed perhydrolysis of triacetin at pH 4.0 (Example 7); assay type: biochemical; settings: pH 4.0, 500 mM H2O2, 1 mg protease
Description: as §1, with “triacetin” for “either a) acetamide (278 mM) in 50 mM sodium acetate/acetic acid buffer (pH 4.0) or b) diacetamide”, “8).” for “7).”

[6] = Protease-catalyzed perhydrolysis of acetamide at pH 6.5 (Example 9); assay type: biochemical; settings: pH 6.5, 500 mM H2O2, 1 mg protease
Description: as §1, with “potassium phosphate” for “sodium acetate/acetic acid”, “6.5),” for “4.0),”, “6.5)” for “4.0)”, “10).” for “7).”

[7] = system: E. coli ATCC 11229; experiment: Determination of Minimum Biocidal Concentration (MBC), XTT reduction inhibition (Example 21); assay type: cell-based; settings: for replicate OD (450 nm): replicates 1-8; for Minimum Biocidal Concentration (MBC): E. coli ATCC 11229, 1.35×10^6 CFU/mL, 10 minutes at room temperature, XTT, six-log kill
From the text: The method described by J. Gabrielson, et al. (J. Microbiol. Methods 50: 63-73 (2002)) was employed for determination of the Minimum Biocidal Concentration (MBC) of peracids, or for determination of the MBC of hydrogen peroxide and enzyme substrates. The assay method is based on XTT reduction inhibition, where XTT ((2,3-bis[2-methoxy-4-nitro-5-sulfophenyl]-5-[(phenylamino)carbonyl]-2H-tetrazolium, inner salt, monosodium salt) is a redox dye that indicates microbial respiratory activity by a change in optical density (OD) measured at 490 nm or 450 nm. However, there are a variety of other methods available for testing the activity of disinfectants and antiseptics including, but not limited to viable plate counts, direct microscopic counts, dry weight, turbidity measurements, absorbance, and bioluminescence (see, for example Brock, Semour S., Disinfection, Sterilization, and Preservation, 5th edition, Lippincott Williams & Wilkins, Philadelphia, Pa., USA; 2001).
The filtered enzyme-generated product mixture was diluted 1:5 with sterile water, and the resulting solution was further diluted with sterile water in four 1:1 serial dilutions to obtain the concentrations of PAA and hydrogen peroxide listed in Table 22.
The 1:5 dilution and four serial dilutions were evaluated for biocidal activity by mixing 0.100 mL of the PAA-containing solution with 0.100 mL of an inoculum containing 2.7×10^6 CFU/mL of E. coli ATCC 11229 (American Type Culture Collection, Manassas, Va.) in Millers LB broth diluted with Butterfield Buffer; eight replicates of each mixture were contained in individual wells of a sterile 96-well microtiter plate. After the resulting cell suspensions were allowed to stand for 10 minutes at room temperature, they were tested for viability using the growth indicator XTT (2,3-bis[2-methoxy-4-nitro-5-sulfophenyl]-5-[(phenylamino)carbonyl]-2H-tetrazolium, inner salt, monosodium salt; CAS RN 111072-31-2) according to the method of Gabrielson et al. (J. Microbiol. Methods, 50:63-73 (2002)).
Separately, the cell inoculum was treated with sterile solutions of triacetin (Table 24) or hydrogen peroxide in 50 mM phosphate buffer (pH 6.5) (Table 25) at the concentrations present in each of the biocide dilutions in Table 23 to determine the MBC for these components of the biocide solution.

Bromelain
diacetamide (250 mM) peracetic acid (ppm), 5 min [1]: 92 ppm
diacetamide (250 mM) peracetic acid (ppm), 30 min [1]: 130 ppm
diacetamide (250 mM) peracetic acid (ppm), 5 min [2]: 311 ppm
diacetamide (250 mM) peracetic acid (ppm), 30 min [2]: 202 ppm
acetamide (250 mM) peracetic acid (ppm), 5 min [3]: 57 ppm
acetamide (250 mM) peracetic acid (ppm), 30 min [3]: 63 ppm
triacetin (250 mM) peracetic acid (ppm), 5 min [4]: 161 ppm
triacetin (250 mM) peracetic acid (ppm), 30 min [4]: 170 ppm
triacetin (250 mM) peracetic acid (ppm), 5 min [5]: 83 ppm
triacetin (250 mM) peracetic acid (ppm), 30 min [5]: 59 ppm
acetamide (250 mM) peracetic acid (ppm), 5 min [6]: 108 ppm
acetamide (250 mM) peracetic acid (ppm), 30 min [6]: 112 ppm

CC(=O)OCC(COC(C)=O)OC(C)=O [triacetin]
biocidal effect ([7]; highest concentration examined (5455 ppm)): no biocidal effect
blank-corrected mean OD ([7]; triacetin 341 ppm): 2.156
mean replicate OD (450 nm) ([7]; triacetin 341 ppm): 2.571
replicate OD (450 nm) ([7]; triacetin 341 ppm): 2.568 and 2.563 and 2.601 and 2.58 and 3.148 and 2.408 and 2.507 and 2.189
blank-corrected mean OD ([7]; triacetin 682 ppm): 1.956
mean replicate OD (450 nm) ([7]; triacetin 682 ppm): 2.371
replicate OD (450 nm) ([7]; triacetin 682 ppm): 2.304 and 2.310 and 2.560 and 2.601 and 2.605 and 2.213 and 2.156 and 2.218
blank-corrected mean OD ([7]; triacetin 1364 ppm): 1.978
mean replicate OD (450 nm) ([7]; triacetin 1364 ppm): 2.393
replicate OD (450 nm) ([7]; triacetin 1364 ppm): 2.140 and 2.266 and 2.485 and 2.632 and 2.823 and 2.337 and 2.265 and 2.198
blank-corrected mean OD ([7]; triacetin 2728 ppm): 1.913
mean replicate OD (450 nm) ([7]; triacetin 2728 ppm): 2.328
replicate OD (450 nm) ([7]; triacetin 2728 ppm): 2.273 and 2.167 and 2.358 and 2.454 and 2.663 and 2.280 and 2.208 and 2.222
blank-corrected mean OD ([7]; triacetin 5455 ppm): 1.835
mean replicate OD (450 nm) ([7]; triacetin 5455 ppm): 2.250
replicate OD (450 nm) ([7]; triacetin 5455 ppm): 2.229 and 2.124 and 2.263 and 2.407 and 2.539 and 2.210 and 2.136 and 2.091

CC(=O)OO [Commercially-Available Peracetic Acid, peracetic acid, reference compound]
Minimum Biocidal Concentration (MBC) ([7]; listed as commercial source of peracetic acid): > 2.3 ppm
blank-corrected mean OD ([7]; commercial PAA 1.15 ppm): 1.138
mean replicate OD (450 nm) ([7]; commercial PAA 1.15 ppm): 1.410
replicate OD (450 nm) ([7]; commercial PAA 1.15 ppm): 1.343 and 1.377 and 1.368 and 1.378 and 1.324 and 1.386 and 1.734 and 1.367
blank-corrected mean OD ([7]; commercial PAA 2.3 ppm): 0.026
mean replicate OD (450 nm) ([7]; commercial PAA 2.3 ppm): 0.298
replicate OD (450 nm) ([7]; commercial PAA 2.3 ppm): 0.292 (2×) and 0.291 and 0.294 and 0.303 (2×) and 0.318 and 0.288
blank-corrected mean OD ([7]; commercial PAA 4.7 ppm): 0.027
mean replicate OD (450 nm) ([7]; commercial PAA 4.7 ppm): 0.298
replicate OD (450 nm) ([7]; commercial PAA 4.7 ppm): 0.294 (2×) and 0.295 and 0.298 and 0.293 and 0.304 and 0.310 and 0.297
blank-corrected mean OD ([7]; commercial PAA 9.4 ppm): 0.024
mean replicate OD (450 nm) ([7]; commercial PAA 9.4 ppm): 0.295
replicate OD (450 nm) ([7]; commercial PAA 9.4 ppm): 0.290 and 0.294 (2×) and 0.291 and 0.299 and 0.295 and 0.301 and 0.296
blank-corrected mean OD ([7]; commercial PAA 18.75 ppm): 0.024
mean replicate OD (450 nm) ([7]; commercial PAA 18.75 ppm): 0.295
replicate OD (450 nm) ([7]; commercial PAA 18.75 ppm): 0.289 and 0.288 and 0.296 (2×) and 0.294 and 0.300 and 0.306 and 0.292

CC(=O)OO [peracetic acid]
Minimum Biocidal Concentration (MBC) ([7]; listed as PAA): > 2.4 ppm
MBC ([7]; Escherichia coli, ATCC11229, 10 min, read-out: Minimum Biocidal Concentration (MBC), E. coli ATCC 11229, 1.35×10^6 CFU/mL, 10 minutes at room temperature, XTT, six-log kill): 2.4 µg/mL (≈ 31.6 µM)
blank-corrected mean OD ([7]; PAA 1.2 ppm, H2O2 40.2 ppm): 0.203
mean replicate OD (450 nm) ([7]; PAA 1.2 ppm, H2O2 40.2 ppm): 0.617
replicate OD (450 nm) ([7]; PAA 1.2 ppm, H2O2 40.2 ppm): 0.674 and 0.635 and 0.658 and 0.625 and 0.639 and 0.520 and 0.496 and 0.692
blank-corrected mean OD ([7]; PAA 2.4 ppm, H2O2 80.4 ppm): 0.007
mean replicate OD (450 nm) ([7]; PAA 2.4 ppm, H2O2 80.4 ppm): 0.421
replicate OD (450 nm) ([7]; PAA 2.4 ppm, H2O2 80.4 ppm): 0.400 and 0.397 and 0.403 and 0.401 and 0.409 and 0.407 and 0.543 and 0.406
blank-corrected mean OD ([7]; PAA 4.8 ppm, H2O2 160.8 ppm): −0.005
mean replicate OD (450 nm) ([7]; PAA 4.8 ppm, H2O2 160.8 ppm): 0.409
replicate OD (450 nm) ([7]; PAA 4.8 ppm, H2O2 160.8 ppm): 0.393 and 0.388 and 0.399 and 0.398 and 0.404 and 0.401 and 0.471 and 0.418
blank-corrected mean OD ([7]; PAA 9.6 ppm, H2O2 321.6 ppm): −0.009
mean replicate OD (450 nm) ([7]; PAA 9.6 ppm, H2O2 321.6 ppm): 0.405
replicate OD (450 nm) ([7]; PAA 9.6 ppm, H2O2 321.6 ppm): 0.398 and 0.392 and 0.395 and 0.404 and 0.409 and 0.394 and 0.422 and 0.427
blank-corrected mean OD ([7]; PAA 19.15 ppm, H2O2 643.1 ppm): −0.029
mean replicate OD (450 nm) ([7]; PAA 19.15 ppm, H2O2 643.1 ppm): 0.388
replicate OD (450 nm) ([7]; PAA 19.15 ppm, H2O2 643.1 ppm): 0.383 and 0.379 and 0.387 and 0.381 and 0.382 (2×) and 0.403 (2×)

Chymopapain: Chymopapain, papaya latex, Sigma C8526
diacetamide (250 mM) peracetic acid (ppm), 5 min [1]: 100 ppm
diacetamide (250 mM) peracetic acid (ppm), 30 min [1]: 131 ppm
diacetamide (250 mM) peracetic acid (ppm), 5 min [2]: 218 ppm
diacetamide (250 mM) peracetic acid (ppm), 30 min [2]: 170 ppm
acetamide (250 mM) peracetic acid (ppm), 5 min [3]: 66 ppm
acetamide (250 mM) peracetic acid (ppm), 30 min [3]: 65 ppm
triacetin (250 mM) peracetic acid (ppm), 5 min [4]: 69 ppm
triacetin (250 mM) peracetic acid (ppm), 30 min [4]: 167 ppm
triacetin (250 mM) peracetic acid (ppm), 5 min [5]: 72 ppm
triacetin (250 mM) peracetic acid (ppm), 30 min [5]: 57 ppm
acetamide (250 mM) peracetic acid (ppm), 5 min [6]: 94 ppm
acetamide (250 mM) peracetic acid (ppm), 30 min [6]: 12 ppm
